Data on 6 compounds can be found in ChEMBL document CHEMBL1146748, “Synthesis and preliminary biological evaluation of truncated zoanthenol analogues” (Bioorg Med Chem Lett, 2004).

Each structure is given as a SMILES string.

The first test relates to MH60. In words: Compound was tested for inhibition of interleukin-6-dependent MH60 cell growth. The settings on record: Mus musculus. Type of test: functional, cell-based.
For the compound `CCCCC1=C(C)C(=O)[C@](C)(CN2c3ccccc3[C@]3(O)CCOC23)C1=O` (stereo partly specified) [MADINDOLINE A], the IC50 amounted to 8 µM.

Compound `CC1=CC(=O)[C@H]2CC(=O)[C@H]3[C@@](C)(CC4=[N+]5C[C@H]6C[C@H](C)C[C@]5(CC[C@@]4(C)[C@@]3(C)CC(=O)O)O6)[C@@H]2C1` gave a concentration for half-maximal inhibition (IC50) of 13 µM.

Compound `C[C@H]1C[C@@H]2C[N+]3=C4CCC[C@](C)(CC(=O)O)[C@]4(C)CC[C@@]3(C1)O2` showed a half-inhibitory concentration (IC50) of roughly 70 µM.

`CC1=CC(=O)[C@@H]2[C@@H](C1)[C@]1(C)CC3=[N+]4C[C@H]5C[C@H](C)C[C@]4(CC[C@@]3(C)[C@@](C)(CC(=O)O)[C@H]1C(=O)[C@@H]2C)O5`: the IC50 was determined as 26 µM.

The next test relates to MH60. Put plainly: Compound was tested for inhibition of interleukin-6-dependent MH60 cell growth; Very weak inhibition.
Conditions: not given
Type of test: functional, cell-based.
As to `C[C@H]1C[C@@H]2CN3C45CCC[C@](C)(CC(=O)O4)[C@]5(C)CC[C@@]3(C1)O2`, the IC50 result is given as “Very weak inhibition”.

Regarding `Cc1cc(O)c2c(c1)[C@]1(C)CC(=O)[C@@]3(C)CCCC[C@@]3(C)[C@@]1(C)C(=O)[C@@H]2C`, the IC50 entry is “Very weak inhibition”.
